Source: PubChem BioAssay (NCI)
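Step 1: Grow cells in 96-well plates. Step 2: Expose to compound for 48 hours at 5 concentrations. Step 3: Interpolate endpoints linearly; if unreached, use highest concentration. TGI denotes the concentration required for complete inhibition of growth.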

Experiments:
Assay in all cases: DTP human tumour cell line panel, 48 h
786-0 renal = system: 786-0 renal
A498 renal = system: A498 renal
A549 NSCLC = system: A549 NSCLC
ACHN renal = system: ACHN renal
CAKI-1 renal = system: CAKI-1 renal
CCRF-CEM leukemia = system: CCRF-CEM leukemia
COLO 205 colon = system: COLO 205 colon
DU-145 prostate = system: DU-145 prostate
EKVX NSCLC = system: EKVX NSCLC
HCC-2998 colon = system: HCC-2998 colon
HCT-116 colon = system: HCT-116 colon
HCT-15 colon = system: HCT-15 colon
HL-60(TB) leukemia = system: HL-60(TB) leukemia
HOP-62 NSCLC = system: HOP-62 NSCLC
HOP-92 NSCLC = system: HOP-92 NSCLC
HT29 colon = system: HT29 colon
IGROV1 ovarian = system: IGROV1 ovarian
K-562 leukemia = system: K-562 leukemia
KM12 colon = system: KM12 colon
LOX IMVI melanoma = system: LOX IMVI melanoma
M14 melanoma = system: M14 melanoma
MALME-3M melanoma = system: MALME-3M melanoma
MCF7 breast = system: MCF7 breast
MDA-MB-231 breast = system: MDA-MB-231 breast
MDA-MB-435 = system: MDA-MB-435
MDA-N = system: MDA-N
MOLT-4 leukemia = system: MOLT-4 leukemia
NCI-H226 lung = system: NCI-H226 lung
NCI-H23 lung = system: NCI-H23 lung
NCI-H522 lung = system: NCI-H522 lung
NCI/ADR-RES ovarian = system: NCI/ADR-RES ovarian
OVCAR-3 ovarian = system: OVCAR-3 ovarian
OVCAR-4 ovarian = system: OVCAR-4 ovarian
OVCAR-8 ovarian = system: OVCAR-8 ovarian
PC-3 prostate = system: PC-3 prostate
RPMI-8226 leukemia = system: RPMI-8226 leukemia
RXF 393 renal = system: RXF 393 renal
SF-295 CNS = system: SF-295 CNS
SF-539 CNS = system: SF-539 CNS
SK-MEL-2 melanoma = system: SK-MEL-2 melanoma
SK-MEL-28 melanoma = system: SK-MEL-28 melanoma
SK-MEL-5 melanoma = system: SK-MEL-5 melanoma
SK-OV-3 ovarian = system: SK-OV-3 ovarian
SN12C renal = system: SN12C renal
SNB-19 CNS = system: SNB-19 CNS
SNB-75 CNS = system: SNB-75 CNS
SW-620 colon = system: SW-620 colon
T-47D breast = system: T-47D breast
TK-10 renal = system: TK-10 renal
U251 CNS = system: U251 CNS
UACC-257 melanoma = system: UACC-257 melanoma
UACC-62 melanoma = system: UACC-62 melanoma
UO-31 renal = system: UO-31 renal
HS 578T breast = system: HS 578T breast
SF-268 CNS = system: SF-268 CNS
SR leukemia = system: SR leukemia

## O=C(Nc1c[nH]c(=O)[nH]c1=O)C(Cl)Cl
786-0 renal
  TGI: > 100 µM
A498 renal
  TGI: > 100 µM
A549 NSCLC
  TGI: > 100 µM
ACHN renal
  TGI: > 100 µM
CAKI-1 renal
  TGI: > 100 µM
CCRF-CEM leukemia
  TGI: > 100 µM
COLO 205 colon
  TGI: > 100 µM
DU-145 prostate
  TGI: > 100 µM
EKVX NSCLC
  TGI: > 100 µM
HCC-2998 colon
  TGI: > 100 µM
HCT-116 colon
  TGI: > 100 µM
HCT-15 colon
  TGI: > 100 µM
HL-60(TB) leukemia
  TGI: > 100 µM
HOP-62 NSCLC
  TGI: > 100 µM
HOP-92 NSCLC
  TGI: > 100 µM
HT29 colon
  TGI: > 100 µM
IGROV1 ovarian
  TGI: > 100 µM
K-562 leukemia
  TGI: > 100 µM
KM12 colon
  TGI: > 100 µM
LOX IMVI melanoma
  TGI: > 100 µM
M14 melanoma
  TGI: > 100 µM
MALME-3M melanoma
  TGI: > 100 µM
MCF7 breast
  TGI: > 100 µM
MDA-MB-231 breast
  TGI: > 100 µM
MDA-MB-435
  TGI: > 100 µM
MDA-N
  TGI: > 100 µM
MOLT-4 leukemia
  TGI: > 100 µM
NCI-H226 lung
  TGI: > 100 µM
NCI-H23 lung
  TGI: > 100 µM
NCI-H522 lung
  TGI: > 100 µM
NCI/ADR-RES ovarian
  TGI: > 100 µM
OVCAR-3 ovarian
  TGI: > 100 µM
OVCAR-4 ovarian
  TGI: > 100 µM
OVCAR-8 ovarian
  TGI: > 100 µM
PC-3 prostate
  TGI: > 100 µM
RPMI-8226 leukemia
  TGI: > 100 µM
RXF 393 renal
  TGI: > 100 µM
SF-295 CNS
  TGI: > 100 µM
SF-539 CNS
  TGI: > 100 µM
SK-MEL-2 melanoma
  TGI: > 100 µM
SK-MEL-28 melanoma
  TGI: > 100 µM
SK-MEL-5 melanoma
  TGI: > 100 µM
SK-OV-3 ovarian
  TGI: > 100 µM
SN12C renal
  TGI: > 100 µM
SNB-19 CNS
  TGI: > 100 µM
SNB-75 CNS
  TGI: > 100 µM
SW-620 colon
  TGI: > 100 µM
T-47D breast
  TGI: > 100 µM
TK-10 renal
  TGI: > 100 µM
U251 CNS
  TGI: > 100 µM
UACC-257 melanoma
  TGI: > 100 µM
UACC-62 melanoma
  TGI: > 100 µM
UO-31 renal
  TGI: > 100 µM

## COc1cc2cc(C(=O)N3C[C@@H](CCl)c4c3cc(N)c3ccccc43)[nH]c2c(OC)c1OC
A549 NSCLC
  TGI: > 100 µM
CAKI-1 renal
  TGI: 0.0364 µM
CCRF-CEM leukemia
  TGI: > 100 µM
HCT-116 colon
  TGI: 0.136 µM
HCT-15 colon
  TGI: 1.11 µM
HL-60(TB) leukemia
  TGI: > 100 µM
HOP-92 NSCLC
  TGI: > 100 µM
HS 578T breast
  TGI: > 100 µM
HT29 colon
  TGI: 1.1 µM
IGROV1 ovarian
  TGI: 0.467 µM
K-562 leukemia
  TGI: > 100 µM
KM12 colon
  TGI: 0.0257 µM
MCF7 breast
  TGI: 22 µM
MDA-N
  TGI: 0.00153 µM
MOLT-4 leukemia
  TGI: 1.64 µM
PC-3 prostate
  TGI: 0.108 µM
RPMI-8226 leukemia
  TGI: > 100 µM
SF-268 CNS
  TGI: > 100 µM
SF-295 CNS
  TGI: > 100 µM
SK-MEL-28 melanoma
  TGI: > 100 µM
SK-OV-3 ovarian
  TGI: 1.45 µM
SR leukemia
  TGI: > 100 µM
SW-620 colon
  TGI: > 100 µM
U251 CNS
  TGI: > 100 µM
